{"source": "patent US11970480", "key": {"[1]": {"settings": "21-membered ring"}, "[2]": {"settings": "from 5,5′-(propane-1,3-diylbis(oxy))bis(4-chloro-3-nitrobenzamide) + butane-1,4-diamine; snar bond; 15-membered ring; DIEA; DMSO; 714.0 mM; 120.0 °C; 2 steps"}, "[3]": {"settings": "amide bond, 2 steps"}}, "note": "Like-named read-outs stand apart in the source and are kept apart here.", "data": [{"molecule": "CCn1nc(C)c2c1C(=O)Nc1nc3cc(C(N)=O)ccc3n1CC=CCn1c(nc3cc(C(N)=O)ccc31)NC(=O)c1cc(C)nn1CCCCC2", "values": [{"measurement": "ring closure, isolated yield", "setting": "[1]; from C=CCn1c(NC(=O)c2cc(C)nn2CCCCCc2c(C)nn(CC)c2C(=O)Nc2nc3cc(C(N)=O)ccc3n2CC=C)nc2cc(C(N)=O)ccc21, rcm bond, Hoveyda-Grubbs II (20 mol%), DCE, 2.69 mM, 100.0 °C", "value": 35, "unit": "%"}, {"measurement": "ring closure, yield of all isomers", "setting": "from C=CCn1c(NC(=O)c2cc(C)nn2CCCCCc2c(C)nn(CC)c2C(=O)Nc2nc3cc(C(N)=O)ccc3n2CC=C)nc2cc(C(N)=O)ccc21, rcm bond, Hoveyda-Grubbs II, 1,2-dichloroethane, 2.69 mM, 100.0 °C, 4.0 h", "value": 35, "unit": "%"}]}, {"molecule": "CCn1nc(C)c2c1C(=O)Nc1nc3cc(C(N)=O)ccc3n1CCCCn1c(nc3c(CNC(=O)OC(C)(C)C)cccc31)NC(=O)c1cc(C)nn1CCCCC2", "values": [{"measurement": "ring closure, isolated yield", "setting": "[1]; from CCn1nc(C)c(CCCCCn2nc(C)cc2C(=O)Nc2nc3c(CNC(=O)OC(C)(C)C)cccc3n2CCCCn2c(N)nc3cc(C(N)=O)ccc32)c1C(=O)O, amide bond, EDC/HOBt/DIEA/DMAP, DMF, 18.2 mM, 60.0 °C", "value": 56, "unit": "%"}, {"measurement": "ring closure, yield of all isomers", "setting": "from CCn1nc(C)c(CCCCCn2nc(C)cc2C(=O)Nc2nc3c(CNC(=O)OC(C)(C)C)cccc3n2CCCCn2c(N)nc3cc(C(N)=O)ccc32)c1C(=O)O, amide bond, EDC/HOBt, DIEA, cat. DMAP, DMF, 18.2 mM, 60.0 °C, 6.0 h", "value": 56, "unit": "%"}]}, {"molecule": "CCn1nc(C)c2c1C(=O)Nc1nc3cc(C(N)=O)ccc3n1CCCCn1c(nc3c(N(C)Cc4ccc(OC)cc4)cccc31)NC(=O)c1cc(C)nn1CCCCC2", "values": [{"measurement": "ring closure, isolated yield", "setting": "[1]; from CCn1nc(C)c(CCCCCn2nc(C)cc2C(=O)Nc2nc3c(N(C)Cc4ccc(OC)cc4)cccc3n2CCCCn2c(N)nc3cc(C(N)=O)ccc32)c1C(=O)O, amide bond, EDC/HOBt/DMAP, DMF, 23.7 mM, 60.0 °C", "value": 20.4, "unit": "%"}, {"measurement": "ring closure, yield of all isomers", "setting": "from CCn1nc(C)c(CCCCCn2nc(C)cc2C(=O)Nc2nc3c(N(C)Cc4ccc(OC)cc4)cccc3n2CCCCn2c(N)nc3cc(C(N)=O)ccc32)c1C(=O)O, amide bond, EDC/HOBt/DMAP, DMF, 23.7 mM, 60.0 °C, 32.0 h", "value": 20.4, "unit": "%"}]}, {"molecule": "NC(=O)c1cc2c(c([N+](=O)[O-])c1)NCCCCNc1c(cc(C(N)=O)cc1[N+](=O)[O-])OCCCO2", "values": [{"measurement": "ring closure, crude yield", "setting": "[2]", "value": 90, "unit": "%"}]}, {"molecule": "2-amino-1-(3-(3-(2-(2-amino-5-carbamoyl-1H-benzo[d]imidazol-1-yl)ethyl)phenyl)-propyl)-1H-benzo[d]imidazole-5-carboxamide + 4-(5-(5-carboxy-3-methyl-1H-pyrazol-1-yl)pentyl)-1-ethyl-3-methyl-1H-pyrazole-5-carboxylic acid", "values": [{"measurement": "ring closure, yield after HPLC", "setting": "[3]; the molecule shown is the open-chain precursor, 25-membered ring, HATU, NMP, 40.3 mM, 40.0 °C", "value": 0.6, "unit": "%"}]}, {"molecule": "8-Ethyl-10,13,13,18-tetramethyl-7,20-dioxo-6,7,8,11,12,13,14,15,20,21,28,29,30,31-tetradecahydrobenzo[4,5]imidazo[1,2-a]benzo[4,5]imidazo[2,1-p]dipyrazolo[5,1-e:4′,3′-1][1,3,6,15,17]pentaazacyclohenicosine-3,24-dicarboxamide", "values": [{"measurement": "ring closure, yield after HPLC", "setting": "[3]; 21-membered ring, HATU, NMP, 51.0 mM, 40.0 °C", "value": 3.4, "unit": "%"}]}, {"molecule": "8-Ethyl-10,17-dimethyl-7,19-dioxo-7,8,11,12,13,14,19,20,27,28,29,30-dodecahydro-6H-benzo[4,5]imidazo[1,2-a]benzo[4,5]imidazo[2,1-o]dipyrazolo[5,1-e:4′,3′-k][1,3,6,14,16]pentaazacycloicosine-3,23-dicarboxamide", "values": [{"measurement": "ring closure, yield after HPLC", "setting": "[3]; 20-membered ring, HATU/DIEA, NMP, 61.5 mM, 120.0 °C", "value": 2, "unit": "%"}]}, {"molecule": "8-Ethyl-10,18-dimethyl-7,20-dioxo-6,7,8,11,14,15,20,21,28,29,30,31-dodecahydrobenzo[4,5]imidazo[1,2-a]benzo[4,5]imidazo[2,1-p]dipyrazolo[5,1-e:4′,3′-1][1,3,6,15,17]pentaazacyclohenicosine-3,24-dicarboxamide", "values": [{"measurement": "ring closure, yield after HPLC", "setting": "[3]; 21-membered ring, HATU/DIEA, NMP, 92.4 mM, 80.0 °C", "value": 1.7, "unit": "%"}]}, {"molecule": "8-ethyl-10,18,30-trimethyl-7,20-dioxo-7,8,11,12,13,14,15,20,21,28,29,30,31,32-tetradecahydro-benzo[4,5]imidazo[2,1-b]benzo[4,5]imidazo[1,2-l]dipyrazolo[5,1-m:4′,3′-t][1,3,6,9,11,14]hexaazacyclodocosine-3,24-dicarboxamide", "values": [{"measurement": "ring closure, yield after HPLC", "setting": "[3]; 22-membered ring, HATU/DIEA, NMP, 68.9 mM, 140.0 °C", "value": 4.56, "unit": "%"}]}, {"molecule": "(1r,39r)-14-ethyl-16,25-dimethyl-12,28-dioxo-2,9,11,14,15,23,24,29,31,38-decaazaoctacyclo[37.2.2.0^2,^1^0.0^3,^8.0^13,^1^7.0^23,^2^7.0^3^0,^3^8.0^32,^3^7]tritetraconta-3,5,7,9,13(17),15,24,26,30,32,34,36-dodecaene-6,34-Dicarboxamide", "values": [{"measurement": "ring closure, isolated yield", "setting": "[1]; amide bond, HATU/DIEA, DMF, 116.0 mM, 80.0 °C, 2 steps", "value": 0.3, "unit": "%"}]}, {"molecule": "(E)-1,26-Dibromo-8-ethyl-10,18-dimethyl-7,20-dioxo-6,7,8,11,12,13,14,15,20,21,28,31-dodecahydrobenzo[4,5]imidazo[1,2-a]benzo[4,5]imidazo[2,1-p]dipyrazolo[5,1-e:4′,3′-1][1,3,6,15,17]pentaazacyclohenicosine-3,24-dicarboxamide", "values": [{"measurement": "ring closure, isolated yield", "setting": "[1]; amide bond, HATU/DIEA, DMF, 59.3 mM, 90.0 °C, 2 steps", "value": 24, "unit": "%"}]}, {"molecule": "(E)-8-Ethyl-1,26-dimethoxy-10,18-dimethyl-7,20-dioxo-6,7,8,11,12,13,14,15,20,21,28,31-dodecahydrobenzo[4,5]imidazo[1,2-a]benzo[4,5]imidazo[2,1-p]dipyrazolo[5,1-e:4′,3′-1][1,3,6,15,17]pentaazacyclohenicosine-3,24-dicarboxamide, bis trifluoroacetic acid salt", "values": [{"measurement": "ring closure, yield after HPLC", "setting": "[3]; 21-membered ring, HATU/TEA, DMF, 24.4 mM, 100.0 °C", "value": 1, "unit": "%"}]}]}
